{
  "source": "patent US20220298493A1",
  "about": "“INACTIVATION PROCESS FOR VIRUSES” (priority 2019, published 2022)",
  "tested_on": "Chikungunya virus",
  "conditions": "200 ppm formaldehyde, 22° C.",
  "note": "Where two headings read alike, the source gives them in different places.",
  "data": [
    {"smiles": "C=O", "note": "[formaldehyde]", "values": [
      {"measurement": "reduction of virus titer (TCID50)", "setting": "after ~9 h", "value": 99, "unit": "%"},
      {"measurement": "reduction of virus titer (TCID50)", "setting": "after ~15 h", "value": 99.9, "unit": "%"}
    ]}
  ]
}
